“And” between values parts separate entries of the source, which are not always exact repeats. Equal entries are not always repeated. Where two headings read alike, the source gives them in different places.
Experiments:
[1] = PC-3 prostate carcinoma xenograft model in the mouse; conditions: male, NMRI-nude (nu/nu), mouse, in vivo, po
Description: (§1) Xenograft models in immunosuppressed mice were used to determine the antitumour activity in living organisms.
(§2) Use was made primarily of a prostate carcinoma model with hormone-independent human PC-3 cells in male nude mice (NMRI-nude (nu/nu) mice, Taconic M&B A/S). To this end, 3 million tumour cells (suspended in medium+Matrigel) 1:1, final 0.1 ml) were injected subcutaneously into the side of each animal. When the tumours extended to an area of 20-30 mm^2., the mice were randomized into therapy groups and therapy was initiated. […] At this point in time, the experiment was terminated in all groups and the prepared tumours were weighed. The T/C value was calculated as primary success parameter using the effect on the final tumour weight: mean tumour weight in the treatment group divided by mean of the tumour weight in the vehicle group.
(§3) Administration route: per os Vehicle: PEG400/ethanol/Solutol HS 15 (70/5/25, v/v/v) Administration volume: 10 ml/kg

[2] = test system: PC-3 prostate carcinoma xenograft; experiment: as above; conditions: for T/C: 17 days, 2 administrations per day
Description: as §1, §2, §3

[3] = Maximum tolerated dose (MTD) in the mouse; format: in vivo; conditions: for Deaths: 21 days; for MTD at 21 days: female, NMRI-nude (nu/nu), mouse, in vivo, oral, 21-day treatment
Description: The MTD was defined as the highest dose which could be administered without any animal dying during the treatment phase, and without any body weight loss of more than 10% compared to the initial weight.
Example 1-1 was administered to female nude mice (NMRI nu/nu):
The treatment phase was followed by an observation phase of 21 days.

[4] = Pharmacokinetic parameters in the rat (i.v. and intragastric); format: in vivo; conditions: for clearance / Vd / half-life: male, iv; for clearance: read-out: CLplasma (converted); for Vd: read-out: Vss; for half-life: read-out: t½ (converted)
Description: For this, the test substances were applied in dissolved form both for intravenous, and for intragastric application, wherein compatible solubilizers such as PEG400 and/or ethanol were used in a compatible amount.
(§4) The test substances were applied at a dose of 0.1-1 mg/kg. Administration was as a bolus injection in the male rat and as an infusion in the female dog (15 min). At various time points after the bolus injection, and before and after the 15-minute infusion, blood samples of about 100-150 μl were removed via a catheter either from the jugular vein (rat) or from the saphenous vein (dog). Lithium-heparin was added as anticoagulant to the blood samples and they were stored in a refrigerator until required for further processing. After centrifugation of the samples for 15 min at 3000 rpm, an aliquot of 100 μl was taken from the supernatant (plasma) and was precipitated by adding 400 μl of cold ACN or methanol (absolute). The precipitated samples were frozen-out at 20° C. overnight, then centrifuged again at 3000 rpm for 15 min, before 150 μl of the clear supernatant were removed to determine the concentration. The analysis was effected by means of an Agilent 1200 HPLC system with connected LCMS/MS detection.
Calculation of the PK parameters (using PK calculation software, e.g. WinNonLin®): CLplasma: total plasma clearance of the test substance (in l*kg/h); CLblood: total blood clearance of the test substance (in l*kg/h),
where (CLblood=CLplasma*Cp/Cb); Vss: apparent steady-state distribution volume (in 1/kg); t1/2: half-life within a specified interval (here: terminal t1/2, in h); AUCnorm: area under the plasma concentration time profile from time point zero extrapolated to infinity divided by the dose normalized for body weight (in kg*l/h); AUC(0-tn)norm: integrated area under the plasma concentration time profile from time point zero until the last time point at which a plasma concentration was measurable, divided by the dose normalized for body weight (in kg*l/h); Cmax: maximum concentration of the test substance in the plasma (in μg/l); Cmax,norm: maximum concentration of the test substance in the plasma divided by the dose normalized for body weight (in kg/1); Cb/Cp: ratio of the blood to plasma concentration distribution.
as §4, with “administered to fasting male rats or female dogs” for “applied”, “0.3-1 mg/kg intragastrically” for “0.1-1 mg/kg. Administration was”, “using a feeding tube.” for “injection in the male rat and as an infusion in the female dog (15 min).”, “administration,” for “the bolus injection, and before and after the 15-minute infusion,”, “−20°” for “20°”, “centrifuged” for “centrifuged again”
Calculation of the PK Parameters (Using PK Calculation Software, e.g. WinNonLin®): […]

human ACC1 = target: T1, human ACC1 (Homo sapiens, UniProt Q13085); experiment: Human ACC1 enzyme assay (ADP-Glo); format: biochemical; conditions: ACC 1 IC50, individual measurements
T1 construct: FLAG (C); made in house; host or cells: baculovirus-infected insect cells (Hi5)

[5] = Membrane affinity logMA (MA-Transil); format: physicochemical; conditions: buffer pH 7.4

Question: Which AUC ([1]; 40 mg/kg) does the source give for `Cc1ccc(-c2ccc(Cl)c(F)c2)cc1C1=C(O)C2(CCC(F)(F)CC2)NC1=O` [Example 1-1, 3-(4′-Chloro-3′-fluoro-4-methylbiphenyl-3-yl)-8,8-difluoro-4-hydroxy-1-azaspiro[4.5]dec-3-en-2-one] here?
Answer: 376 µg·h/mL

Question: What about the AUC ([1]; 80 mg/kg) of the same compound?
Answer: 6080 µg·h/mL

Question: And the T/C ([2]; 40 mg/kg per os)?
Answer: 0.26

Question: What about the T/C ([2]; 80 mg/kg day 1-3, 70 mg/kg from day 4 onwards, per os) of the same compound?
Answer: 0.26

Question: And the “Reduction in body weight in individual animals” value ([2]; 80 mg/kg, 2 times per day, after 3 days)?
Answer: more than 10%

Question: And the Deaths ([3]; 12.5 mg/kg per os, 1 administration per day)?
Answer: 0 of 4

Question: What about the Deaths ([3]; 25 mg/kg per os, 1 administration per day) of the same compound?
Answer: 0 of 4

Question: What about the Deaths ([3]; 50 mg/kg per os, 1 administration per day) of the same compound?
Answer: 0 of 4

Question: And the Deaths ([3]; 50 mg/kg per os, 2 administrations per day)?
Answer: 0 of 4

Question: What about the Deaths ([3]; 75 mg/kg per os, 1 administration per day) of the same compound?
Answer: 0 of 4

Question: And the Deaths ([3]; 100 mg/kg per os, 1 administration per day)?
Answer: 0 of 4

Question: And the MTD at 21 days ([3]; 50 mg/kg, administration twice per day)?
Answer: > 50 mg/kg

Question: And the MTD at 21 days ([3]; administration once per day)?
Answer: > 100 mg/kg

Question: And the CLblood [4]?
Answer: 0.367 mL/min/kg

Question: And the F [4]?
Answer: 95%

Question: What about the clearance ([4]; plasma) of the same compound?
Answer: 0.167 mL/min/kg

Question: What about the Vd ([4]; plasma) of the same compound?
Answer: 0.55 L/kg

Question: And the half-life ([4]; plasma)?
Answer: 40 h

Question: And the IC50 (human ACC1)?
Answer: 117 nM and 125 nM and 69 nM and 95 nM and 58 nM and 97 nM and 53 nM and 54 nM

Question: Which melting point does the source give for `Cc1ccc(-c2ccc(Cl)cc2)cc1C1=C(O)C2(CCC(F)(F)CC2)NC1=O` [Example 1-2, 3-(4′-Chloro-4-methylbiphenyl-3-yl)-8,8-difluoro-4-hydroxy-1-azaspiro[4.5]dec-3-en-2-one] here?
Answer: 105 °C

Question: And the logMA [5]?
Answer: 1.83 (1.7-1.9, n = 3)

Question: And the CLblood [4]?
Answer: 0.2 mL/min/kg

Question: What about the F [4] of the same compound?
Answer: 123%

Question: What about the clearance ([4]; in vivo) of the same compound?
Answer: 0.1 mL/min/kg

Question: What about the Vd ([4]; in vivo) of the same compound?
Answer: 0.36 L/kg

Question: And the half-life ([4]; in vivo)?
Answer: 52 h

Question: And the IC50 (human ACC1)?
Answer: 68 nM and 80 nM and 99 nM and 109 nM and 72 nM and 65 nM and 135 nM and 153 nM
